Measured values as given in patent EP1673354B1, “ARYLINDENOPYRIDINES AND ARYLINDENOPYRIMIDINES AND THEIR USE AS ADENOSINE A2A RECEPTOR ANTAGONISTS” (Ortho-McNeil Pharmaceutical, Inc., priority 2003, dated 2005).
Where two headings read alike, the source gives them in different places.

Assays:
[1] = target: T1, human A2a adenosine receptor (Homo sapiens, UniProt P29274); assay: Ligand binding assay for adenosine A2a receptor ([3H]CGS21680, HEK293 plasma membrane)
T1 construct: purchased PerkinElmer RB-HA2a; host or cells: HEK293 cell plasma membrane
T1 sequence (P29274 whole entry): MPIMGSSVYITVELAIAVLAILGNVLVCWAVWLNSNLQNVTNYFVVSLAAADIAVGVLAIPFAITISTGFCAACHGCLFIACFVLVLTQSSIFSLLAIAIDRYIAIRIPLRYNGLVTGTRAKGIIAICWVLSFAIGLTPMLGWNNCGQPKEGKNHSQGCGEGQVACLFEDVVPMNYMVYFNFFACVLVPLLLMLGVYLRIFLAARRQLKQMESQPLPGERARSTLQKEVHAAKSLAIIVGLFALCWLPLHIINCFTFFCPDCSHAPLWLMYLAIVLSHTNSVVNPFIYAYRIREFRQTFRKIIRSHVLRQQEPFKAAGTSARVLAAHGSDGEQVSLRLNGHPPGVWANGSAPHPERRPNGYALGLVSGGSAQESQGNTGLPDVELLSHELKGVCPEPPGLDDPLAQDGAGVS
Protocol: Ligand Binding Assay for Adenosine A2a Receptor
Ligand binding assay of adenosine A2a receptor was performed using plasma membrane of HEK293 cells containing human A2a adenosine receptor (PerkinElmer, RB-HA2a) and radioligand [^3H]CGS21680 (PerkinElmer, NET1021). Assay was set up in 96-well polypropylene plate in total volume of 200 µl by sequentially adding 20 µL1:20 diluted membrane, 130 µLassay buffer (50 mM Tris·HCl, pH7.4 10 mM MgCl2, 1 mM EDTA) containing [^3H] […] Nonspecific binding was determined by […] NECA. Reaction was carried out at room temperature for 2 hours before filtering through 96-well GF/C filter plate pre-soaked in 50 mM Tris·HCl, pH7.4 containing 0.3% polyethylenimine. Plates were then washed 5 times with cold 50 mM Tris·HCl, pH7.4, dried and sealed at the bottom. Microscintillation fluid 30 µl was added to each well and the top sealed. Plates were counted on Packard Topcount for [^3H]. Data was analyzed in Microsoft Excel and GraphPad Prism programs.

[2] = target: T2, human adenosine A2a receptors (Homo sapiens, UniProt P29274); assay: Adenosine A2a receptor functional assay, antagonist mode (cAMP-inducible beta-galactosidase reporter, 50 nM NECA); assay type: cell-based; conditions: CHO-K1 cells, read-out: Ki (nM) A2a antagonist function
T2 construct: expressed in transfected cells; host or cells: CHO-K1 cells with cAMP-inducible beta-galactosidase reporter gene
T2 sequence (P29274 whole entry): as above
Protocol: Adenosine A2a Receptor Functional Assay
CHO-K1 cells overexpressing human adenosine A2a receptors and containing cAMP-inducible beta-galactosidase reporter gene were seeded at 40-50K/well into 96-well tissue culture plates and cultured for two days. On assay day, cells were washed once with 200 µL assay medium (F-12 nutrient mixture/0.1 % BSA). For agonist assay, adenosine A2a receptor agonist NECA was subsequently added and cell incubated at 37°C, 5% CO2 for 5 hrs before stopping reaction. In the case of antagonist assay, cells were incubated with antagonists for 5 minutes at R.T. followed by addition of 50 nM NECA. Cells were then incubated at 37°C, 5% CO2 for 5 hrs before stopping experiments by washing cells with PBS twice. 50 µL 1X lysis buffer (Promega, 5X stock solution, needs to be diluted to 1X before use) was added to each well and plates frozen at -20°C. For β-galactosidase enzyme colorimetric assay, plates were thawed out at room temperature and 50 µL 2X assay buffer (Promega) added to each well. Color was allowed to develop at 37°C for 1 h or until reasonable signal appeared. Reaction was then stopped with 150 µL 1 M sodium carbonate. […] Data was analyzed in Microsoft Excel and GraphPad Prism programs.

Adenosine A1 receptor = target: T3, Adenosine A1 receptor (Homo sapiens, UniProt P30542); assay: A1 antagonist function (no method described); assay type: cell-based
T3 sequence (P30542 1-326): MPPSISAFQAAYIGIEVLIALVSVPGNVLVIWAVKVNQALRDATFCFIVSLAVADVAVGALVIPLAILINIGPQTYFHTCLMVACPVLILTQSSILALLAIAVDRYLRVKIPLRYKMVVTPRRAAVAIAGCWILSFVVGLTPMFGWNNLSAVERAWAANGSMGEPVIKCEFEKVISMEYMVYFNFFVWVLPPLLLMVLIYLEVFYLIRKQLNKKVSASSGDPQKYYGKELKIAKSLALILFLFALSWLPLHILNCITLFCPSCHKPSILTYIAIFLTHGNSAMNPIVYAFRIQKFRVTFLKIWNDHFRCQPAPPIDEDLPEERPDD

[3] = radioligand [3H]CGS21680, HEK293 membranes, room temperature 2 hours; read-out: Ki (nM) A2a binding

Structure (SMILES)	Ki [1, 3] [nM]	Ki [2] [nM]	Ki (Adenosine A1 receptor) [nM]	Ki ([1]; read-out: Ki (nM) A2a binding; radioligand [3H]CGS21680, HEK293 membranes, room temperature 2 hours) [nM]
CN1CCN(CCCOC(=O)c2c(N)nc(-c3ccccc3)c3c2-c2ccccc2C3=O)CC1 [Compound 83]	200	74.9	117	–
COc1ccc(-c2nc(N)nc3c2Cc2ccccc2-3)cc1 [Compound 1]	44.6	234	53	–
Nc1nc(-c2cccc([N+](=O)[O-])c2)c2c(n1)-c1ccccc1C2=O [Compound 9]	20.8	4.85	7.69	–
Nc1nc(-c2ccccc2)c2c(n1)-c1cccc(CN3CCCC(CO)C3)c1C2=O (stereo not drawn) [Compound 57]	34	15.9	39.3	–
Nc1nc(-c2ccco2)c2c(n1)-c1ccc(C(F)(F)F)cc1C2=O [Compound 22]	14.2	0.055	2.75	–
Nc1nc(-c2cccc(F)c2)c2c(n1)-c1ccccc1C2=O [Compound 39]	4.92	0.926	2.31	–
Nc1nc(Nc2ccccc2)c2c(n1)-c1ccccc1C2=O [Compound 43]	39.9	3.68	2.34	–
Nc1nc(-c2cccnc2)c2c(n1)-c1ccccc1C2=O [Compound 5]	5.36	9.64	27.1	–
CN1CCN(C(=O)c2c(N)nc(-c3ccco3)c3c2-c2ccccc2C3=O)CC1 [Compound 80]	69.1	15.9	56	–
COC(=O)C1CCCCN1Cc1cccc2c1C(=O)c1c(-c3ccccc3)nc(N)nc1-2 (stereo not drawn) [Compound 54]	40.8	3.19	19.6	–
Nc1nc(-c2ccco2)c2c(n1)-c1cccc(O)c1C2=O [Compound 17]	6.3	67.1	111	–
Nc1nc(-c2ccccc2)c2c(c1C(=O)OCCN1CCOCC1)-c1ccccc1C2=O [Compound 91]	208	22.1	14.7	–
Nc1nc(-c2ccco2)c2c(n1)-c1ccccc1C2 [Compound 4]	0.885	2.63	15.6	–
COc1cccc(-c2nc(N)nc3c2C(=O)c2ccccc2-3)c1 [Compound 11]	8.85	1.63	2.47	–
COC(=O)CN(C)Cc1cccc2c1C(=O)c1c(-c3ccccc3)nc(N)nc1-2 [Compound 56]	25.7	6.81	25.8	–
CN(C)CCOC(=O)c1c(N)nc(-c2ccccc2)c2c1-c1ccccc1C2=O [Compound 81, 9H-indeno[2,1-c]pyridine-4-carboxylic acid, 3-amino-1-phenyl-9-oxo-, 2-dimethylamino-ethyl ester]	229	29	33.6	–
COc1cccc2c1C(=O)c1c(-c3ccco3)nc(N)nc1-2 [Compound 37]	2.86	0.143	3.07	–
CSc1nc(N)nc2c1C(=O)c1ccccc1-2 [Compound 41]	88	575	> 3000	–
CC(COC(=O)c1c(N)nc(-c2ccccc2)c2c1-c1ccccc1C2=O)CN(C)C (stereo not drawn) [Compound 92]	38.8	13.9	32.9	–
Nc1nc(-c2ccco2)c2c(n1)-c1cc(C(F)(F)F)ccc1C2=O [Compound 23]	13.6	0.55	1.47	–
C[C@H](O)[C@@H](O)c1cccc2c1C(=O)c1c(-c3ccccc3)nc(N)nc1-2 [Compound 32]	–	0.634	9.89	3.55
Nc1nc(-c2ccccc2)c2c(n1)-c1cccc(CN3CCOCC3)c1C2=O [Compound 51]	36.8	3.26	32.9	–
N#Cc1c(N)nc(-c2ccc(F)cc2)c2c1-c1ccccc1C2=O [Compound 71]	17.2	3.39	2.42	–
N#Cc1c(N)nc(-c2cccnc2)c2c1-c1ccccc1C2=O [Compound 68]	7.59	0.73	34.8	–
N#Cc1c(N)nc(-c2cccs2)c2c1-c1ccccc1C2=O [Compound 72]	12.6	2.54	6.24	–
